Source: US20260327240A1, “1,4-CINEOLE DERIVATIVE AND INTERMEDIATE THEREOF, HERBICIDE CONTAINING SAID DERIVATIVE AS ACTIVE INGREDIENT, METHOD FOR USING HERBICIDE, AND METHOD FOR PREPARING AGROCHEMICAL COMPOSITION” (HOKKO CHEMICAL INDUSTRY CO., LTD., priority 2023, published 2026)

Legend:
Format in all cases: in vivo
[1] = tested on: Echinochloa crus-galli var. formosensis; experiment: Test Example 5: herbicidal effect test by soil application in paddy rice; settings: Echinochloa crus-galli, 336 h, 7.5 g per 10 ares, 14 days after application, read-out: weed inhibition rate
Experimental: Herbicidal Effect Test by Soil Application in Paddy Rice
(§1) Wagner pots with an area of […] were filled with paddy soil, followed by addition of water and incorporation of chemical fertilizer (N:P:K=16:16:16), after which puddling was performed. After that, seeds of Echinochloa crus-galli var. formosensis, broad-leaved weeds (Lindemia pyxidaria, and Monochoria vaginalis), and Scirpus juncoides were sown at a depth of 0 cm to 1 cm, 30 seeds each. Immediately after sowing, the pots were flooded and a water depth of approximately 3 cm was maintained. Subsequent management was conducted in a glass greenhouse. Immediately thereafter, an emulsifiable concentrate prepared according to Formulation Example 5 using the compound shown below was diluted with water, and a specified amount of the diluted solution was applied by dropper. The amount of the active ingredient to be applied was equivalent to 7.5 g per 10 ares.
The present test was conducted in duplicate for each chemical concentration group, and the herbicidal effect was evaluated 14 days after chemical application using the same criteria as in Test Example 1.

[2] = tested on: Digitaria ciliaris; experiment: Test Example 7: herbicidal effect test by soil application in upland field; settings: Digitaria ciliaris, 1 day after sowing, 7.5 g per 10 ares, 14 days after application, read-out: weed inhibition rate
Experimental: (§2) Herbicidal Effect Test by Soil Application in Upland Field
(§3) Pots with an area of 36 cm^2 were filled with upland soil (alluvial loam), twenty seeds each of weeds of Digitaria ciliaris, Echinochloa crus-galli, Chenopodium album, and Amaranthus viridis were uniformly mixed with the top 1 cm layer of soil and the surface was lightly pressed down. One day after sowing, an emulsifiable concentrate prepared according to Formulation Example 5 using the compound shown below was diluted with water, and the diluted solution was sprayed onto the soil surface at a rate of 100 liters per 10 ares. The amount of the active ingredient to be applied was equivalent to 7.5 g per 10 ares. Fourteen days after chemical application, the herbicidal effect was evaluated according to the same criteria as in Test Example 1.

[3] = tested on: Echinochloa crus-galli; experiment: as above; settings: Echinochloa crus-galli, 1 day after sowing, 7.5 g per 10 ares, 14 days after application, read-out: weed inhibition rate
Experimental: as §2, §3

[4] = tested on: Echinochloa crus-galli; experiment: Test Example 8: herbicidal effect test by stem and leaf treatment in upland field; settings: Echinochloa crus-galli, 7 days after sowing, 7.5 g per 10 ares, 14 days after application, read-out: weed inhibition rate
Experimental: Herbicidal Effect Test by Stem and Leaf Treatment in Upland Field
as §3, with “Seven days” for “One day”

[5] = tested on: Echinochloa crus-galli var. formosensis; experiment: Test Example 6: herbicidal effect test by application during growth period of paddy rice; settings: Echinochloa crus-galli, 7 days after sowing, 7.5 g per 10 ares, 14 days after application, read-out: weed inhibition rate
Experimental: Herbicidal Effect Test by Application During Growth Period of Paddy Rice
as §1, with “Seven days after sowing,” for “Immediately thereafter,”, “ares. The test was conducted in duplicate for each chemical concentration group, and the herbicidal effect was evaluated 14 days after chemical application using the same criteria as in Test Example 1.” for “ares.”

[6] = tested on: Digitaria ciliaris; experiment: Test Example 3: herbicidal effect test by soil application in upland field; settings: Digitaria ciliaris, 1 day after sowing, 120 g per 10 ares, 14 days after application, read-out: weed inhibition rate
In short: (§4)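 Twenty seeds per weed species were mixed into the top 1 cm of alluvial loam in pots. One day after sowing, an emulsifiable concentrate diluted in water was sprayed on the soil surface at 120 g active ingredient per 10 ares.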

[7] = tested on: Echinochloa crus-galli; experiment: as above; settings: Echinochloa crus-galli, 1 day after sowing, 120 g per 10 ares, 14 days after application, read-out: weed inhibition rate
In short: as §4

[8] = tested on: Amaranthus viridis; experiment: as above; settings: Amaranthus viridis, 1 day after sowing, 120 g per 10 ares, 14 days after application, read-out: weed inhibition rate
In short: as §4

[9] = tested on: Digitaria ciliaris; experiment: Test Example 4: herbicidal effect test by stem and leaf treatment in upland field; settings: Digitaria ciliaris, 7 days after sowing, 120 g per 10 ares, 14 days after application, read-out: weed inhibition rate
In short: (§5)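 Weeds sown in alluvial loam and sprayed 7 days after sowing with a water-diluted emulsifiable concentrate at 100 L per 10 ares, equivalent to 120 g active ingredient per 10 ares.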

[10] = tested on: Echinochloa crus-galli; experiment: as above; settings: Echinochloa crus-galli, 7 days after sowing, 120 g per 10 ares, 14 days after application, read-out: weed inhibition rate
In short: as §5

CCOC(C)O[C@H]1C[C@]2(C)O[C@@]1(C(C)C)C[C@H]2OCc1ccccc1F (stereo partly drawn) [1-213, (1R,2S,4S,5R)-2-(1-ethoxyethoxy)-5-((2-fluorobenzyl)oxy)-1-isopropyl-4-methyl-7-oxabicyclo[2.2.1]heptane]
≥ 80%: inhibition at 75 g/ha [1] | inhibition at 75 g/ha [2] | inhibition at 75 g/ha [3] | inhibition at 75 g/ha [4] | inhibition at 75 g/ha [5] | inhibition at 1200 g/ha [6] | inhibition at 1200 g/ha [7] | inhibition at 1200 g/ha [8] | inhibition at 1200 g/ha [9] | inhibition at 1200 g/ha [10]
